Assay results as given in patent publication US12071414B2, “Apelin receptor agonists and methods of use thereof” (Sanford Burnham Prebys Medical Discovery Institute, priority 2015, dated 2024).

Molecular target: T1, human apelin receptor (APJ, AGTRL-one, APLNR) (Homo sapiens, UniProt P35414)
T1 construct: host or cells: Chinese hamster ovary cells, stably integrated receptor
T1 sequence (P35414 1-380): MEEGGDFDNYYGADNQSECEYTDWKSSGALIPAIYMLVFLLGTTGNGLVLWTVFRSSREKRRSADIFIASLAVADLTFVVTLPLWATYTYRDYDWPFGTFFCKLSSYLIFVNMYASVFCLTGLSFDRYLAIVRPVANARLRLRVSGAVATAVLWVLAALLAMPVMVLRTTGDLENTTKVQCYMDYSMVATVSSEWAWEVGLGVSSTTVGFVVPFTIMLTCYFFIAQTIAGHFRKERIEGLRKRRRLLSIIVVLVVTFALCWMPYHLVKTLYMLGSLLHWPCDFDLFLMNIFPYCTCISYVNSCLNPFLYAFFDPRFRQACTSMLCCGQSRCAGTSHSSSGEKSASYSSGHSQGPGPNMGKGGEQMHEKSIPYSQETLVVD
Assay: cell-based cAMP TR-FRET assay of apelin receptor activation
Conditions: CHO cells expressing human APJ, forskolin-stimulated cAMP, 0.5 h incubation, 50% of control (apelin-13, 1 nM) response; read-out: Potency Category (EC50)
Procedure: The assays disclosed herein were performed using cell lines from DiscoveX, Inc. Biological activity was determined to the cell—based assay. This assay detects activation of the receptor by reporting on intracellular cyclic adenosine monophosphate (cAMP) level. Chinese hamster ovary cells engineered to express the stably integrated human apelin receptor (APJ, AGTRL—one, APLNR), pleaded into the wells of the microtiter plate. Cells were stimulated with […] to increase intracellular cyclic AMP. Immediately following, compounds were added to the range of final concentrations 0.0-100 μM, in DMSO (not to exceed a final DMSO concentration greater than 1% ν/ν), and allowed to incubate with the cells for 0.5 h. At the end of the incubation, cells were lysed to stop APJ signaling and cAMP was quantified using a commercially available competitive immunoassay kit that applies homogenous time—resolved florescence energy transfer (TR—FRET). The assay is based on the competition between a europium (Eu) chelate—labeled cAMP donor tracer and cellular cAMP for binding sites on a cAMP—specific monoclonal antibody labeled with an acceptor fluorophore. When antibodies are bound to the cAMP tracer light emissions at 320 nm stimulate the energy transfer from the donor to the acceptor, which in turn emits light at 665 nm. In the presence of competitive unlabeled cAMP (derived from the activity of the receptor or forskolin-stimulated production of cAMP), the labelled cAMP tracer is dissociated from the cAMP antibody, resulting in a loss of FRET signal. The amount of light emitted by the FRET is inversely proportional to the cAMP generated by the cell/receptor system. Potency and efficacy at APJ are reported in reference to the canonical APJ receptor agonist apelin—13 when tested at 1 nM. […] Compound efficacy (% response) is reported as a percentage of the maximal apein-13 response at 1 nM (control). Potencies were calculated by fitting a […] logistic curve to concentration response consisting of at least 10 discrete data points spanning effective range of the compounds in the cell-based assay that measures cAMP. […] Category B is 200-500 nM; Category C is 100-200 nM; Category D is 50-100 nM; and Category E is <50 nM.

| Compound | EC50 |
| --- | --- |
| CCC(C(=O)Nc1nc2cc(OC)c(OC)cc2s1)c1ccc(S(=O)(=O)CC)cc1 (stereo not shown) | > 0.5 µM |
| CCS(=O)(=O)c1ccc(C(Oc2ccc(OC)cc2)C(=O)Nc2nc3cc(OC)c(OC)cc3s2)cc1 (stereo not shown) | > 0.5 µM |
| COc1cc2nc(NC(=O)Cc3cccc(C(=O)N(C)C)c3)sc2cc1OC | > 0.5 µM |
| COc1cc2nc(NC(=O)Cc3ccc(C(=O)N(C)C)cc3)sc2cc1OC | > 0.5 µM |
| COc1cc2nc(NC(=O)Cc3ccc(S(=O)(=O)N(C)C)cc3)sc2cc1OC | > 0.5 µM |
| CCS(=O)(=O)c1ccc(C(CCOC)C(=O)Nc2nc3cc(OC)c(OC)cc3s2)cc1 (stereo not shown) | > 0.5 µM |
| CCS(=O)(=O)c1ccc(C(Oc2ccc(F)cc2)C(=O)Nc2nc3cc(OC)c(OC)cc3s2)cc1 (stereo not shown) | > 0.5 µM |
| CCS(=O)(=O)c1ccc(C(Oc2ccc(C#N)cc2)C(=O)Nc2nc3ccc(OCCN4CCOCC4)cc3s2)cc1 (stereo not shown) | > 0.5 µM |
| CCS(=O)(=O)c1ccc(C(Oc2ccc(C#N)cc2)C(=O)Nc2nc3cc(OCC4CC4)c(OC)cc3s2)cc1 (stereo not shown) | > 0.5 µM |
| CCS(=O)(=O)c1ccc(C(Oc2ccc(C(=O)O)cc2)C(=O)Nc2nc3cc(OC)c(OC)cc3s2)cc1 (stereo not shown) | > 0.5 µM |
| CCS(=O)(=O)c1ccc(C(Oc2ccc(C#N)cc2)C(=O)Nc2nc3cnc(OC)cc3s2)cc1 (stereo not shown) | > 0.5 µM |
| CCS(=O)(=O)c1ccc(C(Oc2cccc(C#N)c2)C(=O)Nc2nc3cc(OC)c(OC)cc3s2)cc1 (stereo not shown) | > 0.5 µM |
| CCS(=O)(=O)c1ccc(C(Oc2ccc(C#N)cc2)C(=O)Nc2nc3ccc(F)c(OC)c3s2)cc1 (stereo not shown) | > 0.5 µM |
| CCS(=O)(=O)c1ccc(C(Oc2ccc(C#N)cc2)C(=O)Nc2nc3ccccc3o2)cc1 (stereo not shown) | > 0.5 µM |
| CCS(=O)(=O)c1ccc(C(Oc2ccc(C#N)cc2)C(=O)Nc2nc3cc(OCCN(C)C)c(OC)cc3s2)cc1 (stereo not shown) | > 0.5 µM |
| COc1cc2nc(NC(=O)C(Oc3ccccc3)c3ccc(C#N)cc3)sc2cc1OC (stereo not shown) | > 0.5 µM |
| CCS(=O)(=O)c1ccc(C(Oc2ccc(C#N)cc2)C(=O)Nc2nc3cc(OCCN4CCOCC4)c(OC)cc3s2)cc1 (stereo not shown) | > 0.5 µM |
| CCS(=O)(=O)c1ccc(C(Oc2ccc(C#N)cc2)C(=O)Nc2nc3cc(OC)c(Cl)cc3s2)cc1 (stereo not shown) | > 0.5 µM |
| COc1cc2nc(NC(=O)C(Oc3ccc(C#N)cc3)c3ccc(-c4nnn[nH]4)cc3)sc2cc1OC (stereo not shown) | > 0.5 µM |

| Compound | EC50 |
| --- | --- |
| COc1cc2nc(NC(=O)C(Oc3ccc(-c4nnn[nH]4)cc3)c3ccc(C#N)cc3)sc2cc1OC (stereo not shown) | > 0.5 µM |
| COCCNC(=O)c1ccc(OC(C(=O)Nc2nc3cc(OC)c(OC)cc3s2)c2ccc(C#N)cc2)cc1 (stereo not shown) | > 0.5 µM |
| COc1cc2nc(NC(=O)C(Oc3ccc(O)cc3)c3ccc(C#N)cc3)sc2cc1OC (stereo not shown) | > 0.5 µM |
| COc1cc2nc(NC(=O)C(Oc3ccc(C#N)cc3)c3ccc(C(=O)NCCN4CCCCC4)cc3)oc2cc1OC (stereo not shown) | > 0.5 µM |
| COc1cc2nc(NC(=O)C(Oc3ccc(C(=O)O)cc3)c3ccc(C#N)cc3)sc2cc1OC (stereo not shown) | > 0.5 µM |
| CCS(=O)(=O)c1ccc(C(Oc2ccc(C#N)cc2)C(=O)Nc2cc3ccccc3[nH]2)cc1 (stereo not shown) | > 0.5 µM |
| CCS(=O)(=O)c1ccc(C(Oc2ccc(C#N)cc2)C(=O)Nc2cc3cc(OC)c(OC)cc3[nH]2)cc1 (stereo not shown) | > 0.5 µM |
| CCS(=O)(=O)c1ccc(C(Oc2ccc(C3CCCC3)cc2)C(=O)Nc2nc3cc(OC)c(OC)cc3s2)cc1 (stereo not shown) | 0.2 to 0.5 µM |
| COc1cc2nc(NC(=O)C(Oc3ccc(C#N)cc3)c3ccc(F)cc3)sc2cc1OC (stereo not shown) | 0.2 to 0.5 µM |
| CCS(=O)(=O)c1ccc(C(Oc2ccc(C#N)cc2)C(=O)Nc2nc3cc(OCCO)c(OC)cc3s2)cc1 (stereo not shown) | 0.2 to 0.5 µM |
| CCc1ccc(OC(C(=O)Nc2nc3cc(OC)c(OC)cc3s2)c2ccc(S(=O)(=O)CC)cc2)cc1 (stereo not shown) | 0.2 to 0.5 µM |
| CCS(=O)(=O)c1ccc(C(Oc2ccccc2I)C(=O)Nc2nc3cc(OC)c(OC)cc3s2)cc1 (stereo not shown) | 0.2 to 0.5 µM |
| COCCNS(=O)(=O)c1ccc(C(Oc2ccc(C#N)cc2)C(=O)Nc2nc3cc(OC)c(OC)cc3s2)cc1 (stereo not shown) | 0.2 to 0.5 µM |
| CCS(=O)(=O)c1ccc(C(Oc2ccc(C#N)cc2)C(=O)Nc2nc3cc(OC)c(C)cc3s2)cc1 (stereo not shown) | 0.2 to 0.5 µM |
| COc1cc2nc(NC(=O)C(Oc3ccc(C#N)cc3)c3ccc(C(=O)NCCN4CCCC4)cc3)sc2cc1OC (stereo not shown) | 0.2 to 0.5 µM |
| COc1cc2nc(NC(=O)C(Oc3ccc(C#N)cc3)c3ccc(C(=O)N4CCNCC4)cc3)sc2cc1OC (stereo not shown) | 0.2 to 0.5 µM |
| COc1cc2nc(NC(=O)C(Oc3ccc(C#N)cc3)c3ccc(C(=O)N4CCN(C)CC4)cc3)sc2cc1OC (stereo not shown) | 0.2 to 0.5 µM |
| COc1cc2nc(NC(=O)C(Oc3ccc(C(=O)NCCN4CCOCC4)cc3)c3ccc(C#N)cc3)sc2cc1OC (stereo not shown) | 0.2 to 0.5 µM |
| COc1cc2nc(NC(=O)C(Oc3ccc(C(=O)NCCO)cc3)c3ccc(C#N)cc3)sc2cc1OC (stereo not shown) | 0.2 to 0.5 µM |

Next, values leading:

| EC50 | Compound |
| --- | --- |
| 0.2 to 0.5 µM | CCS(=O)(=O)c1ccc(C(C(=O)Nc2nc3cc(OC)c(OC)cc3s2)C(C)C)cc1 (stereo not shown) |
| 0.2 to 0.5 µM | CCS(=O)(=O)c1ccc(CC(=O)Nc2nc3cc(OC)c(OC)cc3s2)cc1 |
| 0.2 to 0.5 µM | CCS(=O)(=O)c1ccc(C(Oc2ccc(C(F)(F)F)cc2)C(=O)Nc2nc3cc(OC)c(OC)cc3s2)cc1 (stereo not shown) |
| 0.2 to 0.5 µM | CCS(=O)(=O)c1ccc(C(Oc2ccc(C)cc2)C(=O)Nc2nc3cc(OC)c(OC)cc3s2)cc1 (stereo not shown) |
| 0.2 to 0.5 µM | COc1cc2nc(NC(=O)C(Oc3ccc(C#N)cc3)c3ccccc3S(=O)(=O)c3ccc(F)cc3)sc2cc1OC (stereo not shown) |
| 0.2 to 0.5 µM | COc1cc2nc(NC(=O)C(Oc3ccc(C#N)cc3)c3cccc(S(=O)(=O)c4ccc(F)cc4)c3)sc2cc1OC (stereo not shown) |
| 0.2 to 0.5 µM | CCCOc1ccc(OC(C(=O)Nc2nc3cc(OC)c(OC)cc3s2)c2ccc(S(=O)(=O)CC)cc2)cc1 (stereo not shown) |
| 0.2 to 0.5 µM | CCS(=O)(=O)c1cccc(C(Oc2ccc(C#N)cc2)C(=O)Nc2nc3cc(OC)c(OC)cc3s2)c1 (stereo not shown) |
| 0.2 to 0.5 µM | CCOc1ccc(OC(C(=O)Nc2nc3cc(OC)c(OC)cc3s2)c2ccc(S(=O)(=O)CC)cc2)cc1 (stereo not shown) |
| 0.2 to 0.5 µM | COc1cc2nc(NC(=O)C(Oc3ccc(C#N)cc3)c3ccc(S(=O)(=O)Cc4ccccc4)cc3)sc2cc1OC (stereo not shown) |
| 0.2 to 0.5 µM | CCS(=O)(=O)c1ccc(C(Oc2ccc(Br)cc2)C(=O)Nc2nc3cc(OC)c(OC)cc3s2)cc1 (stereo not shown) |
| 0.2 to 0.5 µM | CCCCS(=O)(=O)c1ccccc1C(Oc1ccc(C#N)cc1)C(=O)Nc1nc2cc(OC)c(OC)cc2s1 (stereo not shown) |
| 0.2 to 0.5 µM | COc1cc2nc(NC(=O)C(Oc3ccc(C#N)cc3)c3cccc(S(=O)(=O)C(C)C)c3)sc2cc1OC (stereo not shown) |
| 0.2 to 0.5 µM | COc1cc2nc(NC(=O)C(Oc3ccc(C#N)cc3)c3ccc(S(=O)(=O)c4ccc(Cl)cc4)cc3)sc2cc1OC (stereo not shown) |
| 0.2 to 0.5 µM | COc1cc2nc(NC(=O)C(Oc3ccc(C#N)cc3)c3cccc(S(=O)(=O)c4ccc(Cl)cc4)c3)sc2cc1OC (stereo not shown) |
| 0.2 to 0.5 µM | CCS(=O)(=O)c1ccc(C(Oc2ccc(C(C)C)cc2)C(=O)Nc2nc3cc(OC)c(OC)cc3s2)cc1 (stereo not shown) |
| 0.2 to 0.5 µM | CCS(=O)(=O)c1ccc([C@H](Oc2ccc(C#N)cc2)C(=O)Nc2nc3cc(OC)c(OC)cc3s2)cc1 |
| 0.2 to 0.5 µM | CCS(=O)(=O)c1ccc(C(Oc2ccc(C#N)cc2)C(=O)Nc2nc3cc(Cl)c(OC)cc3s2)cc1 (stereo not shown) |
| 0.2 to 0.5 µM | CCS(=O)(=O)c1ccc(C(Oc2ccc(I)cc2)C(=O)Nc2nc3cc(OC)c(OC)cc3s2)cc1 (stereo not shown) |
| 0.2 to 0.5 µM | CCCc1ccc(OC(C(=O)Nc2nc3cc(OC)c(OC)cc3s2)c2ccc(S(=O)(=O)CC)cc2)cc1 (stereo not shown) |
| 0.2 to 0.5 µM | CCS(=O)(=O)c1ccc(C(Oc2ccc(OC(F)(F)F)cc2)C(=O)Nc2nc3cc(OC)c(OC)cc3s2)cc1 (stereo not shown) |
| 0.2 to 0.5 µM | CCS(=O)(=O)c1ccc(C(Oc2ccc(C#N)cc2)C(=O)Nc2nc3cc(OC(C)C)c(OC)cc3s2)cc1 (stereo not shown) |
| 0.2 to 0.5 µM | CCS(=O)(=O)c1ccc(C(Oc2ccc(N(C)C)cc2)C(=O)Nc2nc3cc(OC)c(OC)cc3s2)cc1 (stereo not shown) |
